{
  "source": "patent US9169509B2",
  "about": "“Topoisomerase 2b as a predictor of susceptibility to anthracycline-induced cardiotoxicity” (Board of Regents, The University of Texas System, priority 2013, dated 2015)",
  "test_system": "heart sections",
  "assay": "Transmission electron microscopy of heart sections",
  "format": "in vivo, mouse",
  "conditions": "for Ultra-structural changes of mitochondria (electron microscopy): doxorubicin 25 mg/kg for 72 h",
  "experimental": "To examine doxorubicin-induced ultra-structural damages, wildtype and mice with Top2 deletion in the cardiomyocytes were treated with doxorubicin (25 mg/kg for 72 h or 5 mg/kg once a week for 5 weeks) or drug vehicle. Heart was quickly removed. After rinse with PBS and blot dried, 10-20 pieces of tissue samples (1×2×2 mm) were taken from the myocardium of the left ventricle. Tissue samples were immediately fixed in 3% phosphate glutaraldehyde. Before sectioning, tissue samples were washed in […] sodium phosphate buffer (pH 7.3), post fixed in 1% osmium tetroxide for 1 h and dehydrated through a series of graded alcohol. Then tissue samples were infiltrated with acetone and phlybed 812 plastic resin and embedded in plastic block molds with 100% polybed 812. One micron sections (thick sections) were cut on ultra microtome and placed on glass slides and stained with toluidine blue. Ultra thin sections (80 nm) were cut from sample blocks using a RMC MTXL Ultra Microtome and mounted on 100 mesh copper grids. Grids were stained with 2% uranyl acetate and Reynold's lead stain. 9 sections were analyzed from each animal heart. Grids were examined with a JEOL 1230 electron microscope and images were capture with an AMTV 600 imaging system.",
  "data": [
    {"smiles": "COc1cccc2c1C(=O)c1c(O)c3c(c(O)c1C2=O)C[C@@](O)(C(=O)CO)C[C@@H]3O[C@H]1C[C@H](N)[C@H](O)[C@H](C)O1", "note": "[doxorubicin]", "values": [
      {"measurement": "Ultrastructural changes in mitochondria (EM)", "setting": "Top2b+/+ hearts, chronic doxorubicin 5 mg/kg once a week for 5 weeks", "result": "ultrastructural changes in mitochondria"},
      {"measurement": "Ultra-structural changes of mitochondria (electron microscopy)", "setting": "Top2b+/+ mouse heart", "result": "marked mitochondria damage and vacuolization"},
      {"measurement": "Ultra-structural changes of mitochondria (electron microscopy)", "setting": "Top2bΔ/Δ heart", "result": "minimal ultra-structural changes"}
    ]}
  ]
}
